From patent US11879137B2, “Treatment of type 1 diabetes and autoimmune diseases or disorders” (THE CHILDREN'S MEDICAL CENTER CORPORATION, priority 2017, dated 2024)

Assays:
[1] = system: NEU1, MTOR, MYC, IGF1R, VEGFA, RB1 in MDA-MB-231 cells; assay: mRNA of validated miRNA target genes (transfection control) in MDA-MB-231 cells; type: cell-based, human; details: VEGFA or RB1 as named for each agent, 48 h after transfection
Method: MDA-MB-231 breast cancer cells were cultured in DMEM high glucose medium (Gibco, Thermo Fisher Scientific; Waltham, MA USA) supplemented with 10% heat-inactivated fetal calf serum (Gibco, Thermo Fisher Scientific), 100 units/ml penicillin, 100 μg/ml streptomycin, and 2 mM L-glutamine. 2×10^5 cells were seeded in each well of a 6-well plate and transfected with 10 pmol of the miRNA mimic or miRNA mimic negative control, or 100 pmol of the anti-miR or anti-miR negative control (all from Exiqon, Qiagen) using the Lipofectamine RNAiMAX transfection reagent (Invitrogen, Thermo Fisher Scientific) in a final culture medium volume of 2 ml, following manufacturer's instructions. […] Forty-eight hours after transfection, cells were collected from each well for RNA extraction, cell lysate preparation and FACS analysis. RNA was extracted using Direct-zol RNA miniprep plus (Zymo research, Irvine, CA, USA) and RNA quality was checked and then retro-transcribed using RETROscript® Kit (Fisher Scientific) following manufacturer's instructions. Cell lysates were obtained in RIPA buffer (50 mmol/1 Tris-HCl, pH 8.0, 1% Triton-x, 0.5% sodium deoxycholate, 0.1% SDS, 150 mmol/1 sodium chloride) with protease inhibitor cocktail (Roche).
qRT-PCR for PD-L1 analysis was performed on retro-transcribed cDNA using SYBR® Green dye (Life Technologies, Thermo Fisher Scientific). Amplification was performed on a QuantStudio S6 Real Time PCR system (Thermo Fisher Scientific). To confirm a successful transfection, the mRNA level of genes known to be controlled by the targeted miRNAs were evaluated by SYBR® Green dye (Life Technologies, Thermo Fisher Scientific) according to the manufacturer's instructions. Normalized expression values were determined using the ΔΔCt method in treated as compared to negative treated samples, using GAPDH mRNA as endogenous reference. The miRNA-targeted genes tested, along with forward and reverse primer sequences used for their amplification, are listed in Table 13.
To determine if targeting the miRNA network decreases PD-L1 expression in human cancer setting, PD-L1-expressing MDA-MB-231 human breast cancer cells were transfected with a set of miRNA mimics or anti-miRs to either increase or decrease the function of a set of miRNAs not previously known to affect PD-L1 (miR-125b, miR-99a, miR-744, mir-599, miR-511, miR-206, miR-26b). The effect of treatment with miRNA mimics and anti-miRs on the percentage of PD-L1-expressing cells, as well as on PD-L1 mRNA and protein levels, was investigated. miRNA mimic/anti-miR treated-cells were compared to corresponding mimic/anti-miR negative control-treated cells by flow cytometric analysis, Real Time PCR and western blot to assess percentage of PD-L1-expressing cells, PD-L1 mRNA, and PD-L1 protein levels, respectively. A successful miRNA mimic/anti-miR transfection was confirmed by the detection of changed mRNA levels of the validated miRNA targets NEU1 (for miR-125b mimic), MTOR (for miR-99a mimic), MYC (for miR-744 mimic and miR-599 anti-miR), IGF1R (for miR-511 mimic), VEGFA (for miR-206 anti-miR) and RB1 (for miR-26b anti-miR) in treated cells (FIG. 22A). […] Lysates of miR-511 mimic and miR-206 anti-miR treated cells were not available for western blot analysis.

PD-L1 on CD34+ cells = assay: Prostaglandin library screening and FACS of PD-L1 on human CD34+ cells; type: cell-based; details: for capacity to upregulate PD-L1 (MFI) in library screening: 10 μM, CD34+ cells from T1D patients; for PD-L1 expression by FACS analysis: CD34+ cells, 10 μM pulsed at 24 and 48 hours
Text: FIGS. 17A-17J show prostaglandins enhance PD-L1 expression on human CD34^+ cells. (FIG. 17A-17B) Results of screening of a prostaglandin small molecule library tested for the ability to upregulate PD-L1 (MFI) on CD34^+ cells obtained from T1D patients. The schematic of the experimental design is shown in (A). The 3-color coding shown in (FIG. 17B) represents lowest PD-L1 MFI values (blue), median PD-L1 MFI values (pink) and highest PD-L1 MFI values (red). (FIG. 17C-17D) Representative flow cytometric analysis and quantitative bar graph of PD-L1 expression on CD34^+ cells from T1D patients pre- and post-pharmacologic modulation with PGE2 as compared to CD34^+ cells obtained from healthy controls. (FIG. 17E) PD-L1 and CXCR4 expression (mRNA) fold change was quantified for CD34^+ cells pre- and post-modulation with PGE2. (FIG. 17F) Migration assay using CD34^+ cells pre- and post-modulation with PGE2. (FIG. 17G) Confocal imaging of CD34^+ cells pre- and post-modulation with PGE2, showing DAPI (in blue) and PD-L1 (in green) staining. 63× magnification. Scale bar, 50 (FIG. 17H) IDO-1 expression (mRNA) fold change was quantified for CD34^+ cells pre- and post-modulation with PGE2. (FIG. 17I-17J) Representative flow cytometric analysis (FIG. 17I) and quantitative bar graph (FIG. 17J) of PD-L1 expression on CD34^+ cells from T1D patients pre- and post-pharmacologic modulation with 4 small molecule PGE2 agonists. All data are expressed as mean±SEM. *P<0.05, **P<0.001. Abbreviations: MFI, mean fluorescence intensity.
Pharmacological modulation of human CD34+ cells. 1×105 of isolated human CD34+ HSPCs (purity 99%) were cultured in 200 μl of StemSpan SFEM II media (SEMCELL Technologies Inc., Cambridge, MA, USA), and each compound in the Prostaglandin Screening Library II (Cayman Chemicals, Ann Arbor, MI), was added individually at day 0 and at day 1 at a concentration of 10 μM as previously reported by the inventors and others (9, 21). In another assay, isolated CD34+ cells from freshly isolated human PBMCs or from cryopreserved PBMCs, and processed as described earlier, were cultured in the presence of a cocktail of cytokines containing: 10 μg/ml heparin (SEMCELL Technologies Inc., Cambridge, MA, USA), 10 ng/ml human SCF (Miltenyi Biotec, San Diego, CA), 20 ng/ml human TPO (Miltenyi Biotec, San Diego, CA), 10 ng/ml human FGF-1 (Miltenyi Biotec, San Diego, CA), 100 ng/ml IGFBP2 (R&D Systems, Inc., Minneapolis, MN), and 500 ng/ml Angptl3 (R&D Systems, Inc., Minneapolis, MN). PGE2 (PromoKine, PromoCell Gmbh, Germany) was added by pulsing the culture at 0, 24h, 72h and 6 days with 2 μl of diluted PGE2 (10 μM). Cells were cultured for 7 days at 37° C. in 5% CO2, and CD34+ cells were then subjected to FACS analysis and were run on a FACSCelesta™ (Becton Dickinson, Franklin Lakes, NJ). Data were analyzed using FlowJo software version 8.7.3 (Treestar, Ashland, OR). The different cytokines used here and their related concentration as well as the choice of the incubation timing was used as previously reported in the literature (22).
Prostaglandin library screening. PGE2 has been described as a small molecule known to enhance the homing and engraftment of HSPCs. It was therefore sought to screen all known types of prostaglandins using the Prostaglandin Screening Library II, which contains 64 small molecules. Each small molecule contained in the library was first screened for its capacity to upregulate PD-L1 in human CD34+ cells isolated from T1D patients (FIG. 17A-17B). CD34+ cells isolated from T1D patients were cultured in StemSpan SFEMII and pulsed with each PG (prostaglandin) small molecule contained in the aforementioned library at a concentration of 10 μM at 24 and 48h. Using FACS analysis, the MFI (mean fluorescence intensity) of PD-L1 expression was calculated following treatment with each small molecule used to modulate CD34+ cells as compared to untreated/unmodulated CD34+ cells (FIG. 17B). […]

CD34+ cells = assay: qRT-PCR of PD-L1, CXCR4 and IDO-1 in prostaglandin-modulated CD34+ cells; type: cell-based, human; details: CD34+ cells upon modulation
Method: qRT-PCR. RNA was extracted from CD34+ cells using Direct-Zol™ RNA Kits (Zymo, Irvine, CA, USA) and Trizol Reagent (Invitrogen Carlsbad, CA), RNA quality was assessed by Multiskan™ GO Microplate spectrophotometer and the ratios of absorbance at 260 nm and 280 nm were assessed for all the samples. Only samples with RNA ratios within 1.9 were included in the present study. cDNA synthesis was made from purified total RNA by reverse transcription using High capacity cDNA Reverse Transcription RETROscript® Kit (Thermo Fisher Scientific, Waltham, MA, USA) followed by a pre-amplification using Taqman PreAmp Kit (Applied Biosystems) according to the manufacturer's instructions. qRT-PCR analysis was performed using TaqMan assays (Life Technologies, Grand Island, NY) containing PCR primers and TaqMan probes according to the manufacturer's instructions. Normalized expression values were determined using the ΔCt method. Quantitative reverse transcriptase polymerase chain reaction (qRT-PCR) data were normalized for the expression of GAPDH. qRT-PCR reactions were performed in triplicate in a 96-well format using an Applied Biosystems 7900HT fast real-time PCR instrument. Relative expression was calculated using the comparative threshold cycle method as previously described (23, 24). For two-group comparisons, a Student's t test was employed. Reported below are the main characteristics of the primers used: […]
Prostaglandin library screening. PGE2 has been described as a small molecule known to enhance the homing and engraftment of HSPCs. It was therefore sought to screen all known types of prostaglandins using the Prostaglandin Screening Library II, which contains 64 small molecules. Each small molecule contained in the library was first screened for its capacity to upregulate PD-L1 in human CD34+ cells isolated from T1D patients (FIG. 17A-17B). CD34+ cells isolated from T1D patients were cultured in StemSpan SFEMII and pulsed with each PG (prostaglandin) small molecule contained in the aforementioned library at a concentration of 10 μM at 24 and 48h. Using FACS analysis, the MFI (mean fluorescence intensity) of PD-L1 expression was calculated following treatment with each small molecule used to modulate CD34+ cells as compared to untreated/unmodulated CD34+ cells (FIG. 17B). A heat map was generated depicting the degree to which each PG small molecule affected PD-L1 expression on CD34+ cells (FIG. 17B), thus allowing for the evaluation of PG candidates. Based on its ability to modulate PD-L1 expression, PGE2 was selected as a candidate for further study; in addition, PGE2 has been described in the literature and has been tested in clinical trials as a potential therapy for enhancing HSPC engraftment following cord blood transplantation (21). Isolated CD34+ cells from healthy control patients (CTRL) and from T1D patients were cultured in StemSpan SFEMII and pulsed with 10 μM of PGE2 at 24 hours and 48 hours. […] It was therefore sought to perform a migration assay in order to assess the homing properties of PGE2-treated CD34+ cells (FIG. 17F).

miR-26b anti-miR: Anti-miR, CUAUCCUGAAUUACUUGA, SEQ ID NO: 8 (listed as RNA, chemistry not given here)
mRNA levels of the validated miRNA target [1]: changed

CCCCC[C@H](O)/C=C/[C@H]1[C@H](O)CC(=O)[C@@H]1CC(=O)CCCCC(=O)O [6-keto PGE1]
capacity to upregulate PD-L1 (MFI) in library screening (PD-L1 on CD34+ cells): strongest capacity
PD-L1 expression by FACS analysis (PD-L1 on CD34+ cells): robust upregulation

miR-206 anti-miR: Anti-miR, CACACACUUCCUUACAUUCC, SEQ ID NO: 7 (listed as RNA, chemistry not given here)
mRNA levels of the validated miRNA target [1]: changed

miR-99a mimic: miRNA mimic, AACCCGUAGAUCCGAUCUUGUG, SEQ ID NO: 3 (listed as RNA, chemistry not given here)
mRNA levels of the validated miRNA target [1]: changed

miR-511 mimic: miRNA mimic, AAUGUGUAGCAAAAGACAGA, SEQ ID NO: 2 (listed as RNA, chemistry not given here)
mRNA levels of the validated miRNA target [1]: changed

CCCCCCC[C@H](O)/C=C/[C@H]1[C@H](O)CC(=O)[C@@H]1C/C=C\CCCC(=O)O [20-ethyl PGE2]
capacity to upregulate PD-L1 (MFI) in library screening (PD-L1 on CD34+ cells): strongest capacity
PD-L1 expression by FACS analysis (PD-L1 on CD34+ cells): robust upregulation
PD-L1 mRNA expression by RT-PCR (CD34+ cells): marked upregulation

CCCCC(C)(C)[C@H](O)/C=C/[C@H]1[C@H](O)CC(=O)[C@@H]1C/C=C\CCCC(=O)Oc1ccc(NC(=O)c2ccc(NC(C)=O)cc2)cc1 [16,16-dimethyl PGE2 4-(4-acetamidobenzamido) phenyl ester]
capacity to upregulate PD-L1 (MFI) in library screening (PD-L1 on CD34+ cells): strongest capacity
PD-L1 expression by FACS analysis (PD-L1 on CD34+ cells): robust upregulation
PD-L1 mRNA expression by RT-PCR (CD34+ cells): marked upregulation

miR-744 mimic: miRNA mimic, CUGUUGCCACUAACCUCAACCU, SEQ ID NO: 4 (listed as RNA, chemistry not given here)
mRNA levels of the validated miRNA target [1]: changed
